According to patent US11299462B2, “Crystal form of oxopicolinamide derivative and preparation method therefor” (JIANGSU HENGRUI MEDICINE CO., LTD., priority 2018, dated 2022):
One block for each compound: values may come before it.

Legend:
[1] = Study of the stability of the crystal forms (HPLC purity and XRPD crystal form, Day 7); format: physicochemical; conditions: for XRPD peaks / crystallinity / HPLC purity change / crystal form stability: 25° C.-60% RH and 40° C.-75% RH; for Purity %: HPLC purity, Day 7, spread flat in the air; for Crystal form: XRPD, Day 7; for chemical stability: conclusion from Table 7
Method: Example 13. Study of the Stability of the Crystal Forms
The samples of crystal forms A, B, C, D and F were spread flat in the air to test sample stability under conditions of 4° C., 25° C.-60% relative humidity (RH) and 40° C.-75% relative humidity (RH). The sampling was carried out on Day 7. The HPLC purity and crystal form stability of the samples were studied.
The XRPD spectrums of the samples of crystal forms A, B, C, D and F under conditions of 25° C.-60% RH and 40° C.-75% RH are shown in FIGS. 7 to 16.
It can be seen that the stability of crystal forms B and F is better than that of crystal forms A, C and D.

[2] = tested on: human blood; experiment: In vitro anticoagulant effect on human blood (APTT detection in plasma); format: biochemical
Method: Test Example 2: Determination of In Vitro Anticoagulant Effect of the Compound of the Present Invention on Human Blood
1. Experimental Materials
Plasma: human blood was collected in blood collection tubes free of anticoagulant, and then 3.8% sodium citrate (volume ratio 1:9) was added. The tubes were centrifuged at 2500 rpm for 10 minutes at room temperature, and then the plasma was collected and stored at −80° C.;
Reagents: APTT reagent (Activated partial thromboplastin time assay kit, SIEMENS, No. B4218-1), calcium chloride solution;
Instrument: coagulation instrument (SYSMEX, CA-500).
The separated plasma was melted at room temperature and mixed well. 10000 μM of test compound dissolved in 100% DMSO was diluted to 3000, 300, 200, 150, 75, 30, 10, 3, 0.3 μM with 100% DMSO, and the blank was 100% DMSO. The reagent, plasma, and compounds were placed in corresponding positions in the coagulation instrument, and APTT detection of the compound was carried out.
Curve fitting was carried out by Prism, and CT2 (i.e., the concentration of the compound corresponding to 2 times the APTT of the blank control) was calculated. CT2=2.0.

Compound: COc1cn([C@@H](Cc2ccccc2)C(=O)Nc2ccc(C(=O)O)cc2)c(=O)cc1-c1cc(Cl)ccc1C(C)=O [Crystal form A, (S)-4-(2-(4-(2-Acetyl-5-chlorophenyl)-5-methoxy-2-oxopyridin-1(2H)-yl)-3-phenylpropanamido)benzoic acid]
XRPD peaks [1]: have changed with the loss of some peak characters
crystallinity [1]: has decreased
Purity % ([1]; 4° C.): 98.94%
Purity % ([1]; 25° C. 60% RH): 98.99%
Purity % ([1]; 40° C. 75% RH): 99.01%
Crystal form ([1]; 4° C.): Same
Crystal form ([1]; 25° C. 60% RH): Different
Crystal form ([1]; 40° C. 75% RH): Different
chemical stability [1]: good

Compound: COc1cn([C@@H](Cc2ccccc2)C(=O)Nc2ccc(C(=O)O)cc2)c(=O)cc1-c1cc(Cl)ccc1C(C)=O [Crystal form B, (S)-4-(2-(4-(2-Acetyl-5-chlorophenyl)-5-methoxy-2-oxopyridin-1(2H)-yl)-3-phenylpropanamido)benzoic acid]
HPLC purity change ([1]; 4° C.): changed slightly
XRPD peaks ([1]; 4° C.): have not changed
crystal form stability ([1]; 4° C.): stable
Purity % ([1]; 4° C.): 99.13%
Purity % ([1]; 25° C. 60% RH): 99.14%
Purity % ([1]; 40° C. 75% RH): 99.13%
Crystal form ([1]; 4° C.): Same
Crystal form ([1]; 25° C. 60% RH): Same
Crystal form ([1]; 40° C. 75% RH): Same
chemical stability [1]: good

Compound: COc1cn([C@@H](Cc2ccccc2)C(=O)Nc2ccc(C(=O)O)cc2)c(=O)cc1-c1cc(Cl)ccc1C(C)=O [compound of formula (I), (S)-4-(2-(4-(2-acetyl-5-chlorophenyl)-5-methoxy-2-oxopyridin-1(2H)-yl)-3-phenylpropanamido) benzoic acid]
CT2 (concentration of the compound corresponding to 2 times the APTT of the blank control) [2]: 2.0

More lines, main results first:

XRPD ([1]; 40° C.-75% RH): has also changed
Purity % ([1]; 4° C.): 99.28%
Purity % ([1]; 25° C. 60% RH): 99.29%
Purity % ([1]; 40° C. 75% RH): 99.31%
Crystal form ([1]; 4° C.): Same
Crystal form ([1]; 25° C. 60% RH): Same
Crystal form ([1]; 40° C. 75% RH): Different
chemical stability [1]: good
Compound: COc1cn([C@@H](Cc2ccccc2)C(=O)Nc2ccc(C(=O)O)cc2)c(=O)cc1-c1cc(Cl)ccc1C(C)=O [Crystal form C, (S)-4-(2-(4-(2-Acetyl-5-chlorophenyl)-5-methoxy-2-oxopyridin-1(2H)-yl)-3-phenylpropanamido)benzoic acid]

crystallinity [1]: has decreased
Purity % ([1]; 4° C.): 98.4%
Purity % ([1]; 25° C. 60% RH): 98.15%
Purity % ([1]; 40° C. 75% RH): 98.33%
Crystal form ([1]; 4° C.): Same
Crystal form ([1]; 25° C. 60% RH): Different
Crystal form ([1]; 40° C. 75% RH): Different
chemical stability [1]: good
Compound: COc1cn([C@@H](Cc2ccccc2)C(=O)Nc2ccc(C(=O)O)cc2)c(=O)cc1-c1cc(Cl)ccc1C(C)=O [Crystal form D, (S)-4-(2-(4-(2-acetyl-5-chlorophenyl)-5-methoxy-2-oxopyridin-1(2H)-yl)-3-phenylpropanamido)benzoic acid]
XRPD peaks [1]: have changed with the loss of some peak characters

HPLC purity change ([1]; 4° C.): changed slightly
XRPD peaks ([1]; 4° C.): have not changed
crystal form stability ([1]; 4° C.): stable
Purity % ([1]; 4° C.): 99.17%
Purity % ([1]; 25° C. 60% RH): 99.33%
Purity % ([1]; 40° C. 75% RH): 99.21%
Crystal form ([1]; 4° C.): Same
Crystal form ([1]; 25° C. 60% RH): Same
Crystal form ([1]; 40° C. 75% RH): Same
chemical stability [1]: good
Compound: COc1cn([C@@H](Cc2ccccc2)C(=O)Nc2ccc(C(=O)O)cc2)c(=O)cc1-c1cc(Cl)ccc1C(C)=O [Crystal form F, (S)-4-(2-(4-(2-Acetyl-5-chlorophenyl)-5-methoxy-2-oxopyridin-1(2H)-yl)-3-phenylpropanamido)benzoic acid]
